Patent US9567301B2, “Pyrrol-1-yl benzoic acid derivatives useful as myc inhibitors” (Whitehead Institute for Biomedical Research, priority 2012, dated 2017)
Like-named read-outs stand apart in the source and are kept apart here.

Key:
H2171 cells = experiment: Cell viability assay (ATPlite), H2171; type: cell-based, human; settings: for EC50: cell viability, three days, ATPlite, NA: inactive under assay conditions
Outline: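 Cells seeded at 60,000 cells/mL and dosed immediately by pin transfer in 10-point quadruplicate dose response from DMSO stocks. After three days at 37 °C, viability was read by ATPlite luminescence after 15 min at room temperature.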

Jurkat cells = experiment: Cell viability assay (ATPlite), Jurkat; type: cell-based, human; settings: Homo sapiens, Jurkat; class symbols; NA: not active under assay conditions
Description: (§1) This assay was used for the H2171 and MM1S cell data shown in Table 2, and for the Jurkat (an immortalized line of human T lymphocyte cells), Ly1 (OCI-Ly1 human non-Hodgkin lymphoma cell line), Ly4 (OCI-Ly4 human non-Hodgkin lymphoma cell line), H2172 (NCI-H2172 human non-small cell lung cancer cell line), and CA-46 (a human Burkitt's lymphoma cell line) cell data shown in Table 3 and FIG. 12. Cells were counted and adjusted to 60,000 cells/mL. Using a Biotek EL406, 50 μL of cells are media were distributed into 384 well white plates from Thermo. Immediately after plating, compound in DMSO was distributed to plates. For large plate sets, cells were returned to 37° C. incubator while not in use.
(§2) Compounds were added to plates using a 100 nL 384 well pin transfer manifold on a Janus workstation. Stocks were arrayed in 10 point quadruplicate dose response in DMSO stock in 384 well Greiner compound plates. After addition of compound, plates were incubated for three days in a 37° C. incubator.
(§3) Cell viability was read out using ATPlite from Perkin Elmer. Plates were removed from the incubator and brought to room temperature prior to use. Lyophilized powder was resuspended in lysis buffer and diluted 1:2 with DI water. 25 μL of this solution was added to each well using the Biotek liquid handler. Plates were sealed with adherent aluminum seals prior to vortexing and spinning down at 1000 g for 1 minute. Plates were incubated for 15 minutes at room temperature before signal was read on an Envision Plate Reader.

c-Myc/Max/Ebox DNA [1] = target: T1, c-Myc/Max/Ebox DNA (Homo sapiens, UniProt P01106); experiment: c-Myc/Max/Ebox DNA AlphaScreen assay; type: binding; set-up: An exemplary assay uses full-length human c-Myc and Max proteins; his6 (cleaved yes); made in house
T1 sequence (P01106 16-454): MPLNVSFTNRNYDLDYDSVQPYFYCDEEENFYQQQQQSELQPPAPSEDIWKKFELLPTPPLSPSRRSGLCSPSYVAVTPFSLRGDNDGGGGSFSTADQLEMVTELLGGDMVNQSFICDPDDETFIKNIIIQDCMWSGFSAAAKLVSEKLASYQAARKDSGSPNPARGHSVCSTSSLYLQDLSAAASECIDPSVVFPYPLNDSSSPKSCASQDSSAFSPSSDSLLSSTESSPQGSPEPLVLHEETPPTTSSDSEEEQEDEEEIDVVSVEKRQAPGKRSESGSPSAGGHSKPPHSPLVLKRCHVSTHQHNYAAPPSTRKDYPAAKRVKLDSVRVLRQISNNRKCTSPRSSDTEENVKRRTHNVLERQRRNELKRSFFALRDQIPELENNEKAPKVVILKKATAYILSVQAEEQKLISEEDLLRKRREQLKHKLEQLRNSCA
Outline: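 Proximity read-out of Myc–Max–DNA complex formation in 50 mM HEPES pH 8.0 with 500 μM DTT. Compounds contact tag-free c-Myc (25 nM), Ebox oligo (10 nM) and acceptor beads first. His6-Max (1.25 nM) with donor beads follows, then 2 h incubation in low light with DMSO ≤2% v/v.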

MM1S cells = experiment: Cell viability assay (ATPlite), MM1S; type: cell-based, human; settings: for EC50: cell viability, three days, ATPlite, NA: inactive under assay conditions
Description: as §1, §2, §3

MITF/MITF/Ebox DNA = target: T2, MITF/MITF/Ebox DNA (Homo sapiens, UniProt O75030); experiment: Gelshift assay, MITF/MITF/Ebox DNA complex formation; type: binding; settings: relative to DMSO at 2.5 µM (FIG. 9)
T2 sequence (O75030 1-526): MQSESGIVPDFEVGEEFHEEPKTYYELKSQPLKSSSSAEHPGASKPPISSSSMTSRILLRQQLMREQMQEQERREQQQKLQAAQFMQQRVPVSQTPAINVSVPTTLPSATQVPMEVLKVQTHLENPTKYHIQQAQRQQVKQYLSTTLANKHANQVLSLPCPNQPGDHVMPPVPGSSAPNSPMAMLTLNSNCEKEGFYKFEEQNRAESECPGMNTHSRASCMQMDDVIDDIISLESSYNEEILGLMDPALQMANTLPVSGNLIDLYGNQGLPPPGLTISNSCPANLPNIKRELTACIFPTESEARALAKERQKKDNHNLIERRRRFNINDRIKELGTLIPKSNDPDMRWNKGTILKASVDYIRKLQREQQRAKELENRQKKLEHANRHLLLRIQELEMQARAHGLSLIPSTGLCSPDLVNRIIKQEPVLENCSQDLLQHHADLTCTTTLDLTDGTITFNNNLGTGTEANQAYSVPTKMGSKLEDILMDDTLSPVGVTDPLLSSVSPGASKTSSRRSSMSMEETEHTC
Description: (§4) Compounds tested at 2.5 μM for their inhibitory activity against c-Myc/Max/Ebox DNA, Max/Max/Ebox DNA and MITF/MITF/Ebox DNA complex formation using gelshift assays.
(§5) AlphaScreen hits can be validated using orthogonal biochemical assays such as a gelshift assay (also called an electrophoretic mobility shift assay) with purified components or cellular lysates. FIG. 5 (left) illustrates how the AlphaScreen hit 63 was validated using a gelshift assay with purified c-Myc, Max and Ebox DNA. […] Compounds and analogs were then examined for potency and selectivity against structurally similar transcription factor:DNA complexes, such as Max/Max/Ebox DNA and MITF/MITF/Ebox DNA. Data in FIG. 9 show how analogs can be tested for potency against structurally similar transcription factors and how medicinal chemistry optimization can drive potency and selectivity against different transcription factor:DNA complexes. […] The selectivity among structurally similar transcription factors can also provide insights into compound mechanism of action. […] Cellular assays can compliment the biochemical analyses to measure the cellular potency of compounds to induce cellular phenotypes expected as a result of loss of transcription factor function. This includes gene expression analysis, chromatin immunoprecipitation (ChIP) analysis, cellular proliferation analysis and cell state analysis. Gene expression analysis can be performed using qRT-PCR, Nanostring technology, microarray technology, or RNA-seq technology to study transcript changes following treatment with compound. ChIP analysis can be performed on the factor of interest to study if compound treatment alters its genomic occupancy. Cellular proliferation and cell state analysis can indicate if the compound alters cell cycle progression or cellular identity. Thus, the approach using biochemical and cellular assays with large chemical libraries or focused libraries of hits identified in high throughput screens can serve as a platform to develop inhibitors of transcription factor function.

protein:DNA complex = experiment: Comparative biochemical analyses of protein:DNA complex formation (FIG. 10); type: binding; settings: FIG. 10, DNA intercalator comparison
c-Myc/Max/Ebox DNA [2] = target: T1, c-Myc/Max/Ebox DNA; experiment: Gelshift assay, c-Myc/Max/Ebox DNA complex formation; type: binding; settings: relative to DMSO at 2.5 mM (FIG. 9)
Description: FIG. 5 describes validation of Compound 63 activity using an orthogonal biochemical assay. […] Decreasing amounts of 63 was added to purified c-Myc, Max and biotinylated Ebox DNA. Biotinylated Ebox DNA complexed with protein (either c-Myc/Max or Max/Max) or free (bottom band) was assayed using a 6% retardation gel, transferred to a membrane and detected using straptavidin-HRP. […]
as §5

Max/Max/Ebox DNA = Max/Max/Ebox DNA (Homo sapiens, UniProt P61244); experiment: Gelshift assay, Max/Max/Ebox DNA complex formation; type: binding; settings: relative to DMSO at 2.5 µM (FIG. 9)
Chain of Max/Max/Ebox DNA (P61244 whole entry): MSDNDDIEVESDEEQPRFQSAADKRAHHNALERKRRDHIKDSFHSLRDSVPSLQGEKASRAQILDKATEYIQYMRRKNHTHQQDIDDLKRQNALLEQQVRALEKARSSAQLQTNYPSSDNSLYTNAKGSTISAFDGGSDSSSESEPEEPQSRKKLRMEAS
Description: as §4
as §5, with “Gene expression analysis can be performed using qRT-PCR, Nanostring technology, microarray technology, or RNA-seq technology to study transcript changes following treatment with compound. ChIP analysis can be performed on the factor of interest to study if compound treatment alters its genomic occupancy. Cellular proliferation and cell state analysis can indicate if the compound alters cell cycle progression or cellular identity. Thus, the approach using biochemical and cellular assays with large chemical libraries or focused libraries of hits identified in high throughput screens can serve as a platform to develop inhibitors of transcription factor function.” left out

[3] = system: HL-60 promyelocytic leukemia cells; experiment: HL-60 differentiation (qRT-PCR, FACS); type: cell-based, human; settings: HL-60 cells
Description: FIG. 7 depicts the assessment of on-target activity versus general toxicity. HL-60 promyelocytic leukemia cells express high levels of c-Myc to maintain a proliferative and undifferentiated cell state. Loss of c-Myc function results in loss of cellular proliferation and induction of cellular differentiation. HL-60 cells were treated with DMSO, 64 (12.5 μM or 25 μM), or 151 (25 μM) for four days.

[4] = class symbols, NA: not active under assay conditions, read-out: Myc/Max IC50
[5] = c-Myc/Max/Ebox DNA AlphaScreen, NA: inactive under assay conditions, read-out: Biochemical IC50

Compound	EC50 (H2171 cells; Homo sapiens, NCI-H2171, 72 h) [µM]	EC50 (Jurkat cells) [µM]	IC50 (c-Myc/Max/Ebox DNA [1]; [4]) [µM]	EC50 (MM1S cells; Homo sapiens, MM1.S, 72 h) [µM]	MITF/MITF/Ebox DNA complex formation (MITF/MITF/Ebox DNA)	IC50 (c-Myc/Max/Ebox DNA [1]; [5]) [µM]	other results
Cc1ccc(C)n1-c1ccccc1C(=O)O [Compound 1]	–	≥ 100	10 to 100	–	–	–	EC50 (H2171 cells): 93.5 µM; EC50 (MM1S cells): 132 µM
COc1cccc2c1C(=O)c1c(O)c3c(c(O)c1C2=O)C[C@@](O)(C(=O)CO)C[C@@H]3O[C@H]1C[C@H](N)[C@H](O)[C@H](C)O1 [doxorubicin]	–	–	–	–	–	–	protein:DNA complex formation (protein:DNA complex): non-specifically disrupts protein:DNA complex formation
Cc1ccc(C)n1-c1ccccc1-c1nnn[nH]1 [Compound 162]	24.2	≥ 100	≥ 100	66	–	151	–
Cc1ccc(C)n1-c1cc(C(=O)N/N=C/c2cccc(C(=O)O)c2)ccc1C(=O)O [Compound 101, (E)-4-(2-(3-carboxybenzylidene)hydrazinecarbonyl)-2-(2,5-dimethyl-1H-pyrrol-1-yl)benzoic acid]	–	10 to 100	1 to 10	–	potently disrupted	–	c-Myc/Max/Ebox DNA complex formation (c-Myc/Max/Ebox DNA [2]): potently disrupted; Max/Max/Ebox DNA complex formation (Max/Max/Ebox DNA): potently disrupted; biochemical activity (c-Myc/Max/Ebox DNA [1]; FIG. 4): increased biochemical activity

Now from value to compound, other results behind:

EC50 (H2171 cells; Homo sapiens, NCI-H2171, 72 h) [µM]	EC50 (Jurkat cells) [µM]	IC50 (c-Myc/Max/Ebox DNA [1]; [4]) [µM]	EC50 (MM1S cells; Homo sapiens, MM1.S, 72 h) [µM]	MITF/MITF/Ebox DNA complex formation (MITF/MITF/Ebox DNA)	IC50 (c-Myc/Max/Ebox DNA [1]; [5]) [µM]	Compound	other results
400	≥ 100	1 to 10	–	–	–	Cc1ncc(CO)c(/C=N/NC(=O)c2ccc(C(=O)O)c(-n3c(C)ccc3C)c2)c1O [Compound 80]	–
–	–	–	731	most potent of the compounds tested	1.66	Cc1ccc(C)n1-c1cc(C(=O)N/N=C/c2ccc(-c3nnn[nH]3)cc2)ccc1C(=O)O [Compound 92]	–
–	–	–	–	disrupted	0.531	Cc1ccc(C)n1-c1cc(C(=O)N/N=C/c2ccc(O)c(O)c2O)ccc1C(=O)O [Compound 79]	c-Myc/Max/Ebox DNA complex formation (c-Myc/Max/Ebox DNA [2]): disrupted
29.9	10 to 100	≥ 100	52.3	–	155	CC(=O)OCOC(=O)c1ccccc1-n1c(C)ccc1C [Compound 64]	cellular activity in cellular proliferation assay (H2171 cells; H2171, relative to free acid Compound 63 (FIG. 3)): increased cellular activity; cellular activity/potency in cellular proliferation assay (MM1S cells; MM1.S, prodrug relative to free acid (FIG. 3, FIG. 4)): increased cellular activity; expression of differentiation markers (qRT-PCR) ([3]; 12.5 μM or 25 μM, four days): induces the expression of three differentiation markers (CD14, CD11c, and CCL4); differentiation marker CD11c (FACS) ([3]; 4 days): express the differentiation marker CD11c
